Data on one molecule can be found in US11834663B2, “Fibrotic treatment” (Monash University, priority 2015, dated 2023).

The subject of the test is isolated hearts from aged WT mice. As to the kind of experiment: Ischemic-reperfusion injury in isolated Langendorff hearts from chronically treated aged WT mice. Type of test: in vivo, mouse. The method, then:
There are 8 different sets of in vivo experiments in this study: • A) Phenotypic characterisation of the heart and blood vessels in global IRAP knockout mice and their WT controls treated for 4 weeks with Angiotensin (Ang) II (800 ng/kg/min; s.c.) where mouse hearts and blood vessels were compared to tissue obtained from young WT and IRAP^−/− mice treated with saline. • B) Prevention of Ang II-induced changes in the cardiovascular system following IRAP inhibitor treatment. In the prevention model, WT mice were treated with Ang II (800 ng/kg/min; s.c.)±the IRAP inhibitor (HFI-419; 500 ng/kg/min for 28 days) or HFI-vehicle (1 DMSO:3 HBC). • C) Phenotypic characterisation of the aged heart, kidney and blood vessels in the global IRAP knockout mice where aged WT and IRAP^−/− mouse hearts, kidneys and blood vessels were compared to tissue obtained from young WT and IRAP^−/− mice. • D) Reversal of the age-induced changes in the cardiovascular system following IRAP inhibitor treatment. In the reversal model, aged WT mice were treated with either saline, IRAP inhibitor (HFI-419 at 500 ng/kg/min; compound 1 at 500 ng/kg/min; compound 2 at 50 ng/kg/min) or HFI-vehicle (1 DMSO: 3 HBC) for 4 weeks. • E) Prevention of ischemic-reperfusion injury in isolated hearts taken from aged global IRAP knockout mice and aged IRAP inhibitor (HFI-419 at 500 ng/kg/min; s.c.) treated WT mice compared to age-matched vehicle-treated (1 DMSO:3 HBC; s.c.) WT controls. • F) Phenotypic characterization of cardiac function using echocardiography in the aged global IRAP knockout mice compared to aged and young WT mice. • G) Phenotypic characterization of liver steatosis in IRAP knockout mice in a high fat diet (HFD) model. • H) Reversal of the salt-induced fibrosis in the liver following IRAP inhibitor treatment.
Mice were injected with heparin (500 IU) 20 min before death by cervical dislocation. The heart was rapidly excised and immersed in ice-cold physiological saline solution (PSS). Under a dissecting microscope, the heart and aortic arch were cleared of loose tissue, the pulmonary vein perforated to permit free perfusion of the heart and the heart was mounted on a Langendorff apparatus (ML870B2, ADInstruments, Bella Vista, NSW, Australia) via a 20 gauge needle. The heart was continuously perfused with pre-warmed PSS containing (mM): NaCl 118; KCl 4.7; NaHCO3 25; glucose 11; KH2PO4 1.2; MgSO4 1.2; CaCl2) 1.2 mM and gassed with O2 95% and CO2 5% (carbogen) at 37° C. Prior to use, the PSS was filtered through a 0.22 μm cellulose acetate filter (Millipore). The heart perfusion chamber was surrounded by thermostatically controlled water jacket system that maintained the temperature at 37° C. A fine, 200 μm cannula was present in the PSS line for drug delivery (1:10 drug dilution and with a time lag of 1 min to the heart). A Millar pressure cathether (Millar instruments Inc.) was introduced into the left ventricle via a puncture at the junction of the left atrium and ventricle, and connected to a Power lab system (ADInstruments). […] Left ventricular developed pressure (LVDP); end diastolic pressure (EDP), heart rate (HR), left ventricular contractility (+dP/dt) and left ventricular relaxation (−dP/dt) and coronary flow were recorded continuously.
Ischemia was induced by halting perfusion of the heart for 40 min. […] Left ventricular developed pressure (LVDP), end diastolic pressure (EDP) and contractility (±dP/dt) were recorded during the 60 min. […]

Turning to `CCOC(=O)C1=C(NC(C)=O)Oc2cc(O)ccc2C1c1cccnc1` (centres unmarked) [HFI-419], the “reduction in infarct area compared to the aged WT control” value (40 min ischemia / 60 min reperfusion, aged WT mice treated with HFI-419 for 4 weeks, FIG. 20a) is ~50%. Also, where the note is “aged WT mice, HFI-419 4 weeks”, the “recovery of LVDP in the first 10 minutes of reperfusion” value is recorded as “did not affect”. Also, the “recovery of LVDP in latter stages of reperfusion” value (evident from 20 min of reperfusion, aged WT mice, HFI-419 4 weeks, FIG. 20b) is on record as “significant improvement”. The “recovery of LV±dP/dt in latter stages of reperfusion” value (evident from 20 min of reperfusion, aged WT mice, HFI-419 4 weeks, FIG. 20c,d) is listed as “significant improvement”. The “HR, LVDP or LVEDP at baseline” value (pre-ischemic baseline, aged WT vehicle vs HFI-419 treated) was “no difference”.
